Source: patent US20230279020A9, “CARM1 INHIBITORS AND USES THEREOF” (Epizyme, Inc., priority 2013, published 2023)

Molecular target: Human CARM1 (PRMT4) (Homo sapiens (Human), UniProt Q86X55)
Test: CARM1 enzyme assay on peptide substrate (3H-SAM Flashplate)
Details: Biochemical potencies, classification codes; read-out: Biochem IC50

Chain of Human CARM1 (PRMT4) (Q86X55 other isoform, or with tags, fused parts or gaps isoform Q86X55-1): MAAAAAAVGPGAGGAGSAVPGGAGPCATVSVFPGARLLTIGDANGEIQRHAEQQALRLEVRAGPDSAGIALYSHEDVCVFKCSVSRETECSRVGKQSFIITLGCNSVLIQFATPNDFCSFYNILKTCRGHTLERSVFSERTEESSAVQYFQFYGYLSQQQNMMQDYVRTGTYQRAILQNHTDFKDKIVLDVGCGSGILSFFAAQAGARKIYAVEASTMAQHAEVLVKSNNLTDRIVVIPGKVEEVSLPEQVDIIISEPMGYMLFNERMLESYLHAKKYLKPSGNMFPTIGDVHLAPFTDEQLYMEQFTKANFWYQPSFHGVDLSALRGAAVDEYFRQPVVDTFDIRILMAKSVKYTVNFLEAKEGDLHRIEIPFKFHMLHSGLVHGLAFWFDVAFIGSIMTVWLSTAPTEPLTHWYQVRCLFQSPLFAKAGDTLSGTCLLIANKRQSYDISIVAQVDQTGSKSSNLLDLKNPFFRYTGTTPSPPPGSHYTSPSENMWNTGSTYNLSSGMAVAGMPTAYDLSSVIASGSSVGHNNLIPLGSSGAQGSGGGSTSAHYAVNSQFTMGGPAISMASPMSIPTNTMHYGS

IC50 | SMILES
< 100 nM | CC[C@H]1CN(c2nc(-c3cccc(OCC(O)CNC)c3)nc(-c3c(C)noc3C)c2C)CCN1C1CC1 (stereo partly drawn) [Example 178-1a]
< 100 nM | CNC[C@@H](O)COc1ccc(Cl)c(-c2nc(-c3c(C)noc3C)c(C)c(N3CCC4(C3)CN(C3CC3)C4)n2)c1 [Example 178-3]
< 100 nM | CNCC(O)COc1cccc(-c2nc(-c3c(C)noc3C)c(C)c(N3CCC4(CC3)CN(S(C)(=O)=O)C4)n2)c1 (stereo not drawn) [Example 179-1a]
< 100 nM | CNC[C@@H](O)COc1ccc(Cl)c(-c2nc(N[C@@H]3CO[C@H](C)C3)c(C)c(-c3c(C)noc3C)n2)c1 [Example 179-3]
< 100 nM | CNC[C@@H](O)COc1ccc(Cl)c(-c2nc(N[C@@H]3CO[C@H](C)C3)c(Cl)c(-c3c(C)noc3C)n2)c1 [Example 180-3]
< 100 nM | CNCC(O)COc1cccc(-c2nc(OC3CCOCC3)c(C)c(-c3c(C)noc3C)n2)c1 (stereo not drawn) [Example 181-1a]
< 100 nM | CNC[C@@H](O)COc1ccc(Cl)c(-c2nc(N[C@@H]3CO[C@@H](C)C3)c(Cl)c(-c3c(C)noc3C)n2)c1 [Example 181-3]
< 100 nM | CNCC(O)COc1cccc(-c2nc(OCC3CCOCC3)c(C)c(-c3c(C)noc3C)n2)c1 (stereo not drawn) [Example 182-1a]
< 100 nM | CNC[C@@H](O)COc1ccc(Cl)c(-c2nc(N[C@@H]3C[C@@H](C)O[C@@H](C)C3)c(C)c(-c3c(C)noc3C)n2)c1 [Example 182-3]
< 100 nM | CNC[C@@H](O)COc1cccc(-c2nc(NCC3CCOCC3)c(C)c(-c3c(C)noc3C)n2)c1 [Example 183-1a]
< 100 nM | CNC[C@@H](O)COc1ccc(Cl)c(-c2nc(N[C@@H]3C[C@@H](C)O[C@@H](C)C3)c(Cl)c(-c3c(C)noc3C)n2)c1 [Example 183-3]
< 100 nM | CNCC(O)COc1cccc(-c2nc(NCC3CCN(C(=O)OC)CC3)c(C)c(-c3c(C)noc3C)n2)c1 (stereo not drawn) [Example 184-1a]
< 100 nM | CNC[C@@H](O)COc1ccc(Cl)c(-c2nc(-c3c(C)noc3C)c(C)c(N3CC(F)(F)C3)n2)c1 [Example 184-3]
< 100 nM | CNCC(O)COc1cccc(-c2nc(NC3CCN(C4CC4)CC3)c(C)c(-c3c(C)noc3C)n2)c1 (stereo not drawn) [Example 185-1a]
< 100 nM | CNC[C@@H](O)COc1ccc(F)c(-c2nc(-c3c(C)noc3C)c(C)c(N3Cc4cc(Cl)cnc4C3)n2)c1 [Example 185-3]
< 100 nM | CNCC(O)COc1cccc(-c2nc(NC3CCN(C(=O)OC)C3)c(C)c(-c3c(C)noc3C)n2)c1 (stereo not drawn) [Example 186-1a]
< 100 nM | CNC[C@@H](O)COc1ccc(Cl)c(-c2nc(-c3c(C)noc3C)c(C)c(N3C[C@H]4COC[C@H]4C3)n2)c1 [Example 186-3]
< 100 nM | CNCC(O)COc1ccc(Cl)c(-c2nc(NC3CCN(C(=O)OC)CC3)c(Cl)c(-c3c(C)noc3C)n2)c1 (stereo not drawn) [Example 187-1a]
< 100 nM | CNC[C@@H](O)COc1ccc(Cl)c(-c2nc(-c3c(C)noc3C)c(C)c(N3CCOC3=O)n2)c1 [Example 187-3]
< 100 nM | CNC[C@@H](O)COc1ccc(Cl)c(-c2nc(NC3CC(F)C3)c(C)c(-c3c(C)noc3C)n2)c1 (stereo partly drawn) [Example 188-3]
< 100 nM | CCOC(=O)N1CCC(Nc2nc(-c3cccc(OCC(O)CNC)c3)nc(-c3c(C)noc3C)c2C)CC1 (stereo not drawn) [Example 189-1a]
< 100 nM | CNC[C@@H](O)COc1ccc(Cl)c(-c2nc(NC3CC(F)(F)C3)c(C)c(-c3c(C)noc3C)n2)c1 [Example 189-3]

IC50 | SMILES
< 100 nM | CCOC(=O)N1CCCC(Nc2nc(-c3cccc(OCC(O)CNC)c3)nc(-c3c(C)noc3C)c2C)C1 (stereo not drawn) [Example 190-1a]
< 100 nM | CNC[C@@H](O)COc1ccc(Cl)c(-c2nc(-c3c(C)noc3C)c(C)c(N3Cc4cncnc4C3)n2)c1 [Example 190-3]
< 100 nM | CCOC(=O)N1CCC(CNc2nc(-c3cccc(OCC(O)CNC)c3)nc(-c3c(C)noc3C)c2C)CC1 (stereo not drawn) [Example 191-1a]
< 100 nM | CCO[C@@H]1CCC[C@H]1Nc1nc(-c2cc(OC[C@H](O)CNC)ccc2F)nc(-c2c(C)noc2C)c1C [Example 191-3]
< 100 nM | CCS(=O)(=O)N1CCC(CNc2nc(-c3cccc(OCC(O)CNC)c3)nc(-c3c(C)noc3C)c2C)CC1 (stereo not drawn) [Example 192-1a]
< 100 nM | CNC[C@@H](O)COc1ccc(Cl)c(-c2nc(-c3c(C)noc3C)c(C)c(N3Cc4nc(C)sc4C3)n2)c1 [Example 192-3]
< 100 nM | CNCC(O)COc1cccc(-c2nc(NCC3CCCN(CC(F)F)C3)c(C)c(-c3c(C)noc3C)n2)c1 (stereo not drawn) [Example 193-1a]
< 100 nM | CCOC(=O)N1CCCC(CNc2nc(-c3cccc(OCC(O)CNC)c3)nc(-c3c(C)noc3C)c2C)C1 (stereo not drawn) [Example 194-1a]
< 100 nM | CNC[C@@H](O)COc1ccc(Cl)c(-c2nc(N[C@@H]3CCN(C)C[C@@H]3F)c(C)c(-c3c(C)noc3C)n2)c1 [Example 194-3]
< 100 nM | CNCC(O)COc1cccc(-c2nc(NC3CCN(CC(F)F)C3)c(C)c(-c3c(C)noc3C)n2)c1 (stereo not drawn) [Example 195-1a]
< 100 nM | CNC[C@@H](O)COc1ccc(Cl)c(-c2nc(N[C@H]3CCN(C4CC4)C[C@H]3F)c(Cl)c(-c3c(C)noc3C)n2)c1 [Example 195-3]
< 100 nM | CCOC(=O)N1CCC(Nc2nc(-c3cccc(OCC(O)CNC)c3)nc(-c3c(C)noc3C)c2C)C1 (stereo not drawn) [Example 196-1a]
< 100 nM | CNC[C@@H](O)COc1ccc(Cl)c(-c2nc(N[C@H]3CCO[C@H](C)C3)c(C)c(-c3c(C)noc3C)n2)c1 [Example 196-3]
< 100 nM | CCS(=O)(=O)N1CCC(Nc2nc(-c3cccc(OCC(O)CNC)c3)nc(-c3c(C)noc3C)c2C)C1 (stereo not drawn) [Example 197-1a]
< 100 nM | CNC[C@@H](O)COc1ccc(Cl)c(-c2nc(N[C@H]3CCO[C@H](C)C3)c(Cl)c(-c3c(C)noc3C)n2)c1 [Example 197-3]
< 100 nM | CNCC(O)COc1cccc(-c2nc(NC3CCCN(S(C)(=O)=O)C3)c(C)c(-c3c(C)noc3C)n2)c1 (stereo not drawn) [Example 198-1a]
< 100 nM | CNC[C@@H](O)COc1ccc(Cl)c(-c2nc(N[C@H]3CO[C@H](C)C3)c(C)c(-c3c(C)noc3C)n2)c1 [Example 198-3]
< 100 nM | CNCC(O)COc1cccc(-c2nc(-c3c(C)noc3C)c(C)c(N3C[C@H](C)O[C@@H](C)C3)n2)c1 (stereo partly drawn) [Example 199-1a]
< 100 nM | CNC[C@@H](O)COc1ccc(Cl)c(-c2nc(-c3c(C)noc3C)c(C)c(N3CCc4ncccc43)n2)c1 [Example 199-3]
< 100 nM | CNCC(O)COc1cccc(-c2nc(-c3c(C)noc3C)c(C)c(N3CCOC(C)(C)C3)n2)c1 (stereo not drawn) [Example 200-1a]
< 100 nM | CNC[C@@H](O)COc1ccc(C(F)(F)F)c(-c2nc(NC3CCOCC3)c(C)c(-c3c(C)noc3C)n2)c1 [Example 200-3]
< 100 nM | CNCC(O)COc1cccc(-c2nc(NC3CCCN(C(=O)OC)C3)c(C)c(-c3c(C)noc3C)n2)c1 (stereo not drawn) [Example 201-1a]

IC50 | SMILES
< 100 nM | CNC[C@@H](O)COc1ccc(Cl)c(-c2nc(N[C@H]3CO[C@H](C)C3)c(Cl)c(-c3c(C)noc3C)n2)c1 [Example 201-3]
< 100 nM | CNCC(O)COc1cccc(-c2nc(NC3CCN(C(=O)OC)CC3)c(Cl)c(-c3c(C)noc3C)n2)c1 (stereo not drawn) [Example 202-1a]
< 100 nM | CNC[C@@H](O)COc1ccc(Cl)c(-c2nc(N[C@H]3CN(C(=O)OC)C[C@@H]3F)c(C)c(-c3c(C)noc3C)n2)c1 [Example 202-3]
< 100 nM | CNC[C@@H](O)COc1ccc(Cl)c(-c2nc(N[C@H]3CN(C4CC4)C[C@@H]3F)c(C)c(-c3c(C)noc3C)n2)c1 [Example 203-3]
< 100 nM | CCS(=O)(=O)N1CCCC(Nc2nc(-c3cccc(OCC(O)CNC)c3)nc(-c3c(C)noc3C)c2C)C1 (stereo not drawn) [Example 204-1a]
< 100 nM | CNC[C@@H](O)COc1ccc(C(F)(F)F)c(-c2nc(NC3CCN(C(=O)OC)CC3)c(C)c(-c3c(C)noc3C)n2)c1 [Example 204-3]
< 100 nM | CNCC(O)COc1cccc(-c2nc(NCC3CCN(CC(F)F)CC3)c(C)c(-c3c(C)noc3C)n2)c1 (stereo not drawn) [Example 205-1a]
< 100 nM | CNC[C@@H](O)COc1ccc(Cl)c(-c2nc(-c3c(C)noc3C)c(C)c(C3CC3)n2)c1 [Example 205-3]
< 100 nM | CCOC(=O)N1CCOC[C@@H]1CNc1nc(-c2cccc(OCC(O)CNC)c2)nc(-c2c(C)noc2C)c1C (stereo partly drawn) [Example 206-1a]
< 100 nM | CNC[C@@H](O)COc1ccc(Cl)c(-c2nc(-c3c(C)noc3C)c(C)c(N3CC(F)C3)n2)c1 [Example 206-3]
< 100 nM | CNCC(O)COc1cccc(-c2nc(NC3CCNC[C@H]3F)c(C)c(-c3c(C)noc3C)n2)c1 (stereo partly drawn) [Example 207-1a]
< 100 nM | CNC[C@@H](O)COc1ccc(Cl)c(-c2nc(-c3c(C)noc3C)c(C)c(N3CCC3C)n2)c1 (stereo partly drawn) [Example 207-3]
< 100 nM | CNCC(O)COc1cccc(-c2nc(NC3CCN(C(=O)OC(C)(C)C)C[C@H]3F)c(C)c(-c3c(C)noc3C)n2)c1 (stereo partly drawn) [Example 208-1a]
< 100 nM | CNC[C@@H](O)COc1ccc(Cl)c(-c2nc(N[C@H]3CCN(C)C[C@H]3F)c(Cl)c(-c3c(C)noc3C)n2)c1 [Example 208-3]
< 100 nM | CNCC(O)COc1cccc(-c2nc(-c3c(C)noc3C)c(C)c(N3CCO[C@@H](C)C3)n2)c1 (stereo partly drawn) [Example 209-1a]
< 100 nM | CNC[C@@H](O)COc1ccc(Cl)c(-c2nc(N[C@H]3COC[C@@H]3O)c(C)c(-c3c(C)noc3C)n2)c1 [Example 209-3]
< 100 nM | CNCC(O)COc1cccc(-c2nc(Nc3cn(C)cn3)c(C)c(-c3c(C)noc3C)n2)c1 (stereo not drawn) [Example 210-1a]
< 100 nM | CNC[C@@H](O)COc1ccc(Cl)c(-c2nc(N[C@@H]3CCN(C)C[C@@H]3F)c(Cl)c(-c3c(C)noc3C)n2)c1 [Example 210-3]
< 100 nM | CNCC(O)COc1cccc(-c2nc(-c3c(C)noc3C)c(C)c(N3CCO[C@H](C)C3)n2)c1 (stereo partly drawn) [Example 211-1a]
< 100 nM | CNC[C@@H](O)COc1ccc(Cl)c(-c2nc(N[C@@H]3CCN(C4CC4)C[C@@H]3F)c(Cl)c(-c3c(C)noc3C)n2)c1 [Example 211-3]

SMILES | IC50
CNCC(O)COc1cccc(-c2nc(NC3CCN(CC(F)F)CC3)c(C)c(-c3c(C)noc3C)n2)c1 (stereo not drawn) [Example 188-1a] | < 100 nM
CNCC(O)COc1cccc(-c2nc(NC3CCCN(CC(F)F)C3)c(C)c(-c3c(C)noc3C)n2)c1 (stereo not drawn) [Example 203-1a] | < 100 nM
